US8324264B1, “Inhibitors of bacterial biofilms and related methods” (Sequoia Sciences, Inc., priority 2011, dated 2012)
In brackets after ≈: the same amount, converted by molar mass.

Experiments:
E. coli biofilms = assay: Biofilm growth assay (spreading biofilm on semi-solid agar), E. coli; type: cell-based; conditions: biofilm growth assay, overnight 37° C., vs negative controls, Tables 1-5; for IC85: Escherichia coli, read-out: E. coli: concentration that reduces the area of the spreading biofilm by greater than or equal to 85%
Outline: (§1)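 Values are compound concentrations (μg/ml) that cut the spreading-biofilm zone area by ≥85% relative to negative controls after overnight 37 °C growth from 5 μL central inoculum. E. coli plates: LB, 0.6% agar, 0.5% glucose; P. aeruginosa plates: M8 agar plus 0.2% glucose, 100 μM CaCl2, 1 mM MgSO4, 0.5% Casamino acids.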

P. aeruginosa biofilms = assay: Biofilm growth assay (spreading biofilm on semi-solid agar), P. aeruginosa; type: cell-based; conditions: biofilm growth assay, overnight 37° C., vs negative controls, Tables 1-5; for IC85: Pseudomonas aeruginosa, read-out: P. aeruginosa: concentration that reduces the area of the spreading biofilm by greater than or equal to 85%
Outline: as §1

SMILES	E. coli: concentration that reduces the area of the spreading biofilm by greater than or equal to 85% (E. coli biofilms)	P. aeruginosa: concentration that reduces the area of the spreading biofilm by greater than or equal to 85% (P. aeruginosa biofilms)	IC85 (E. coli biofilms)	IC85 (P. aeruginosa biofilms)
CC1(C)CC[C@]2(C(=O)O)CC[C@]3(C)C(=C(c4ccc(N5CCOCC5)cc4)CC4[C@@]5(C)Cc6c(n[nH]c6N)C(C)(C)C5CC[C@]43C)C2C1 (stereo partly drawn) [Example 51, (4aS,6aS,6bR,13aR)-12-Amino-2,2,6a,6b,9,9,13a-heptamethyl-15-(4-morpholinophenyl)-2,3,4,4a,5,6,6a,6b,7,8,8a,9,11,13,13a,13b,14,15b-octadecahydro-1H-chryseno[1,2-f]indazole-4-a-carboxylic acid]	2 µg/mL	0.5 µg/mL		
CC1(C)CC[C@]2(C(=O)O)CC[C@]3(C)C(=C(c4ccc(N5CCNCC5)cc4)CC4[C@@]5(C)Cc6c(n[nH]c6N)C(C)(C)C5CC[C@]43C)C2C1 (stereo partly drawn) [Example 50, (4aS,6aS,6bR,13aR)-12-Amino-2,2,6a,6b,9,9,13a-heptamethyl-15-(4-(piperazin-1-yl)phenyl)-2,3,4,4a,5,6,6a,6b,7,8,8a,9,11,13,13a,13b,14,15b-octadecahydro-1H-chryseno[1,2-f]indazole-4-a-carboxylic acid]	1 µg/mL	2 µg/mL		
CC1(C)CC[C@]2(C(=O)O)CC[C@]3(C)C(=C(c4cccc(F)c4)CC4[C@@]5(C)Cc6c(n[nH]c6N)C(C)(C)[C@@H]5CC[C@]43C)[C@@H]2C1 (stereo partly drawn) [Example 17, (4aS,6aS,6bR,8aR,13aR,15bS)-12-Amino-15-(3-fluorophenyl)-2,2,6a,6b,9,9,13a-heptamethyl-2,3,4,4a,5,6,6a,6b,7,8,8a,9,11,13,13a,13b,14,15b-octadecahydro-1H-chryseno[1,2-f]indazole-4-a-carboxylic acid]	>2 µg/mL	0.5 µg/mL		
CC1(C)CC[C@]2(C(=O)O)CC[C@]3(C)C(=C(c4ccccc4CN4CCOCC4)CC4[C@@]5(C)Cc6c(n[nH]c6N)C(C)(C)[C@@H]5CC[C@]43C)[C@@H]2C1 (stereo partly drawn) [Example 59, (4aS,6aS,6bR,8aR,13aR,15bS)-12-Amino-2,2,6a,6b,9,9,13a-heptamethyl-15-(2-(morpholinomethyl)phenyl)-2,3,4,4a,5,6,6a,6b,7,8,8a,9,11,13,13a,13b,14,15b-octadecahydro-1H-chryseno[1,2-f]indazole-4-a-carboxylic acid]	>1 µg/mL	0.5 µg/mL		
CC1(C)CC[C@]2(c3n[nH]c(O)c3CCN)CC[C@]3(C)C(=CCC4[C@@]5(C)Cc6c(n[nH]c6N)C(C)(C)[C@@H]5CC[C@]43C)[C@@H]2C1 (stereo partly drawn) [Compound 84, 3-((4aS,6aS,6bR,13aR)-12-Amino-2,2,6a,6b,9,9,13a-heptamethyl-2,3,4,4a,5,6,6a,6b,7,8,8a,9,11,13,13a,13b,14,15b-octadecahydro-1H-chryseno[1,2-f]indazol-4-a-yl)-4-(2-aminoethyl)-1H-pyrazol-5-ol]			0.5 µg/mL (≈ 0.87 µM)	0.125 µg/mL (≈ 0.217 µM)
CC1(C)CC[C@]2(C(=O)O)CC[C@]3(C)C(=CCC4[C@@]5(C)Cc6cc[nH]c6C(C)(C)C5CC[C@]43C)C2C1 (stereo partly shown) [C]			0.5 µg/mL (≈ 1.05 µM)	0.5 µg/mL (≈ 1.05 µM)
CC1(C)CC[C@]2(C(=O)O)CC[C@]3(C)[C@H](C(=O)C=C4[C@@]5(C)C=C(C#N)C(=O)C(C)(C)[C@@H]5CC[C@]43C)[C@@H]2C1 [L]			> 16 µg/mL	> 16 µg/mL
CC1(C)CC[C@]2(C(=O)O)CC[C@]3(C)C(=C(c4cn[nH]c4)CC4[C@@]5(C)Cc6c(n[nH]c6N)C(C)(C)[C@@H]5CC[C@]43C)[C@@H]2C1 (stereo partly drawn) [Example 27, (4aS,6aS,6bR,8aR,13aR,15bS)-12-Amino-2,2,6a,6b,9,9,13a-heptamethyl-15-(1H-pyrazol-4-yl)-2,3,4,4a,5,6,6a,6b,7,8,8a,9,11,13,13a,13b,14,15b-octadecahydro-1H-chryseno[1,2-f]indazole-4-a-carboxylic acid]	>2 µg/mL	1 µg/mL		
CC1(C)CC[C@]2(C(=O)O)CC[C@]3(C)C(=C(c4ccc(N)c(F)c4)CC4[C@@]5(C)Cc6c(n[nH]c6N)C(C)(C)C5CC[C@]43C)C2C1 (stereo partly drawn) [Example 31, (4aS,6aS,6bR,13aR)-12-Amino-15-(4-amino-3-fluorophenyl)-2,2,6a,6b,9,9,13a-heptamethyl-2,3,4,4a,5,6,6a,6b,7,8,8a,9,11,13,13a,13b,14,15b-octadecahydro-1H-chryseno[1,2-f]indazole-4-a-carboxylic acid]	1 µg/mL	0.5 µg/mL		
CC1(C)CC[C@]2(C(=O)O)CC[C@]3(C)C(=C(c4ccccc4N)CC4[C@@]5(C)Cc6c(n[nH]c6N)C(C)(C)C5CC[C@]43C)C2C1 (stereo partly drawn) [Example 23, (4aS,6aS,6bR,13aR)-12-Amino-15-(2-aminophenyl)-2,2,6a,6b,9,9,13a-heptamethyl-2,3,4,4a,5,6,6a,6b,7,8,8a,9,11,13,13a,13b,14,15b-octadecahydro-1H-chryseno[1,2-f]indazole-4-a-carboxylic acid]			2 µg/mL (≈ 3.42 µM)	1 µg/mL (≈ 1.71 µM)
COc1ccc(C2=C3[C@@H]4CC(C)(C)CC[C@]4(C(=O)O)CC[C@@]3(C)[C@]3(C)CC[C@H]4C(C)(C)c5n[nH]c(N)c5C[C@]4(C)C3C2)cn1 (stereo partly drawn) [Example 42, (4aS,6aS,6bR,8aR,13aR,15bS)-12-Amino-15-(6-methoxypyridin-3-yl)-2,2,6a,6b,9,9,13a-heptamethyl-2,3,4,4a,5,6,6a,6b,7,8,8a,9,11,13,13a,13b,14,15b-octadecahydro-1H-chryseno[1,2-f]indazole-4-a-carboxylic acid]	1 µg/mL	0.25 µg/mL		
CC1(C)CC[C@]2(C(=O)O)CC[C@]3(C)C(=C(c4ccc5[nH]ccc5c4)CC4[C@@]5(C)Cc6c(n[nH]c6N)C(C)(C)C5CC[C@]43C)C2C1 (stereo partly drawn) [Example 49, (4aS,6aS,6bR,13aR)-12-Amino-15-(1H-indol-5-yl)-2,2,6a,6b,9,9,13a-heptamethyl-2,3,4,4a,5,6,6a,6b,7,8,8a,9,11,13,13a,13b,14,15b-octadecahydro-1H-chryseno[1,2-f]indazole-4-a-carboxylic acid]	>1 µg/mL	0.5 µg/mL		
CC1(C)CC[C@]2(C(=O)O)CC[C@]3(C)C(=C(c4ccc(CN5CCOCC5)cc4)CC4[C@@]5(C)Cc6c(n[nH]c6N)C(C)(C)C5CC[C@]43C)C2C1 (stereo partly drawn) [Example 52, (4aS,6aS,6bR,13aR)-12-Amino-2,2,6a,6b,9,9,13a-heptamethyl-15-(4-(morpholinomethyl)phenyl)-2,3,4,4a,5,6,6a,6b,7,8,8a,9,11,13,13a,13b,14,15b-octadecahydro-1H-chryseno[1,2-f]indazole-4-a-carboxylic acid]	2 µg/mL	1 µg/mL		
CC1(C)CC[C@]2(C(=O)O)CC[C@]3(C)C(=C(c4c[nH]cc4CN4CCOCC4)CC4[C@@]5(C)Cc6c(n[nH]c6N)C(C)(C)[C@@H]5CC[C@]43C)[C@@H]2C1 (stereo partly drawn) [Example 33, (4aS,6aS,6bR,8aR,13aR,15bS)-12-Amino-2,2,6a,6b,9,9,13a-heptamethyl-15-(4-(morpholinomethyl)-1H-pyrrol-3-yl)-2,3,4,4a,5,6,6a,6b,7,8,8a,9,11,13,13a,13b,14,15b-octadecahydro-1H-chryseno[1,2-f]indazole-4-a-carboxylic acid]	4 µg/mL	2 µg/mL		
C=C(C)[C@@H]1CC[C@]2(CO)CC[C@]3(C)[C@H](CC[C@@H]4[C@@]5(C)CC[C@H](O)C(C)(C)[C@@H]5CC[C@]43C)[C@@H]12 [Betulin, reference compound]			> 16 µg/mL	16 µg/mL (≈ 36.1 µM)
CN(C)CCc1c([C@]23CCC(C)(C)CC2C2=CCC4[C@@]5(C)Cc6c(n[nH]c6N)C(C)(C)C5CC[C@@]4(C)[C@]2(C)CC3)n[nH]c1O (stereo partly drawn) [Compound 85, 3-((4aS,6aS,6bR,13aR)-12-Amino-2,2,6a,6b,9,9,13a-heptamethyl-2,3,4,4a,5,6,6a,6b,7,8,8a,9,11,13,13a,13b,14,15b-octadecahydro-1H-chryseno[1,2-f]indazol-4-a-yl)-4-(2-(dimethylamino)ethyl)-1H-pyrazol-5-ol]	1 µg/mL	0.5 µg/mL		
CNCCc1c([C@]23CCC(C)(C)CC2C2=CCC4[C@@]5(C)Cc6c(n[nH]c6N)C(C)(C)C5CC[C@@]4(C)[C@]2(C)CC3)n[nH]c1O (stereo partly drawn) [Compound 86, 3-((4aS,6aS,6bR,13aR)-12-Amino-2,2,6a,6b,9,9,13a-heptamethyl-2,3,4,4a,5,6,6a,6b,7,8,8a,9,11,13,13a,13b,14,15b-octadecahydro-1H-chryseno[1,2-f]indazol-4-a-yl)-4-(2-(methylamino)ethyl)-1H-pyrazol-5-ol]	2 µg/mL	0.5 µg/mL		
